Reference: US6908884B2, “Benzazolonylcarbonylcyclohexenones and their use as herbicides” (BASF Aktiengesellschaft, priority 2000, dated 2005)
Each block holds one compound with its values, some of them ahead of it.

Key:
[1] = test system: AMARE; assay: greenhouse post-emergence herbicidal test; format: in vivo, redroot pigweed; conditions: 125 or 250 g/ha (a.s.)
Source text: (§1) The seeds of the test plants were sown separately for each species. For the post-emergence treatment, the test plants were first grown to a plant height of from 3 to 15 cm, depending on the plant habit, and only then treated with the active compounds which had been suspended or emulsified in water. To this end, the test plants were either sown directly and grown in the same containers, or they were first grown separately as seedlings and transplanted into the test containers a few days prior to treatment. The rate of application for the post-emergence treatment was 250, 125, 62.5, 31.3 and/or 15.6 g/ha of active substance (a.s.). Depending on the species, the plants were kept at from 10 to 25° C., or 20-35° C., respectively. The test period extended over 2 to 4 weeks. During this time, the plants were tended, and their response to the individual treatments was evaluated. Evaluation was carried out using a scale of from 0 to 100. 100 means no emergence of the plants, or complete destruction of at least the aerial parts, and 0 means no damage, or normal course of growth. A damage of at least 95% corresponds to very good herbicidal action. The plants used in the greenhouse experiments were of the following species: [table]

[2] = test system: LAMAM; assay: greenhouse post-emergence herbicidal test; format: in vivo, henbit; conditions: 125 or 62.5 g/ha (a.s.)
Source text: as §1

[3] = test system: MATIN; assay: greenhouse post-emergence herbicidal test; format: in vivo, chamomile, false; conditions: 125 or 62.5 g/ha (a.s.)
Source text: as §1

[4] = test system: SINAL; assay: greenhouse post-emergence herbicidal test; format: in vivo, white mustard; conditions: 125 or 62.5 g/ha (a.s.)
Source text: as §1

[5] = test system: ABUTH; assay: greenhouse post-emergence herbicidal test; format: in vivo, velvet leaf; conditions: 125 or 250 g/ha (a.s.)
Source text: as §1

[6] = test system: PHBPU; assay: greenhouse post-emergence herbicidal test; format: in vivo, morning glory, common
Source text: as §1, with “The rate of application for the post-emergence treatment was 250, 125, 62.5, 31.3 and/or 15.6 g/ha of active substance (a.s.).” left out

[7] = test system: SETFA; assay: greenhouse post-emergence herbicidal test; format: in vivo, giant foxtail; conditions: 125 or 250 g/ha (a.s.)
Source text: as §1

[8] = test system: CHEAL; assay: greenhouse post-emergence herbicidal test; format: in vivo, lambs' quarters (goose-foot)
Source text: as §1, with “The rate of application for the post-emergence treatment was 250, 125, 62.5, 31.3 and/or 15.6 g/ha of active substance (a.s.).” left out

[9] = test system: ECHCG; assay: greenhouse post-emergence herbicidal test; format: in vivo, barnyard grass
Source text: as §1, with “The rate of application for the post-emergence treatment was 250, 125, 62.5, 31.3 and/or 15.6 g/ha of active substance (a.s.).” left out

[10] = test system: POLPE; assay: greenhouse post-emergence herbicidal test; format: in vivo, lady's thumb; conditions: 31.3 g/ha (a.s.), read-out: herbicidal action against POLPE
Source text: as §1

[11] = test system: BRAPL; assay: greenhouse post-emergence herbicidal test; format: in vivo, marmalade grass; conditions: 125 or 250 g/ha (a.s.)
Source text: as §1

SMILES: CCCCn1c(=O)oc2ccc(C(=O)C3=C(O)CCCC3=O)c(C)c21 [Compound I-1a.6]
- herbicidal action against AMARE [1]: very good herbicidal action (A damage of at least 95% corresponds to very good herbicidal action)

SMILES: C=CCn1c(=O)oc2ccc(C(=O)C3=C(O)CCCC3=O)c(C)c21 [Compound I-1a.29]
- herbicidal action against AMARE [1]: very good herbicidal action (A damage of at least 95% corresponds to very good herbicidal action)

SMILES: Cc1c(C(=O)C2=C(O)CCCC2=O)ccc2sc(=O)n(C)c12 [Compound I-1a.1129, 3,4-dimethyl-5-(1′,3′-cyclohexanedion-2′-yl)carbonylbenzothiazol-2-one]
- herbicidal action against LAMAM [2]: very good herbicidal action (A damage of at least 95% corresponds to very good herbicidal action)
- herbicidal action against MATIN [3]: very good herbicidal action (A damage of at least 95% corresponds to very good herbicidal action)
- herbicidal action against SINAL [4]: very good herbicidal action (A damage of at least 95% corresponds to very good herbicidal action)

SMILES: CCn1c(=O)sc2ccc(C(=O)C3=C(O)CCCC3=O)c(C)c21 [Compound I-1a.1131]
- herbicidal action against ABUTH [5]: very good herbicidal action (A damage of at least 95% corresponds to very good herbicidal action)

SMILES: Cc1c(C(=O)C2=C(O)CC(C)(C)CC2=O)ccc2sc(=O)n(C)c12 [Compound I-1c.1129, 3,4-dimethyl-5-(5′,5′-dimethyl-1′,3′-cyclohexanedion-2′-yl)-carbonylbenzothiazol-2-one]
- herbicidal action against PHBPU ([6]; 125 or 62.5 g/ha (a.s.)): very good herbicidal action (A damage of at least 95% corresponds to very good herbicidal action)

SMILES: CCn1c(=O)sc2ccc(C(=O)C3=C(O)CC(C)(C)CC3=O)c(C)c21 [Compound I-1c.1131]
- herbicidal action against SETFA [7]: very good herbicidal action (A damage of at least 95% corresponds to very good herbicidal action)

SMILES: Cc1c(C(=O)C2=C(O)C(C)(C)C(=O)C(C)(C)C2=O)ccc2sc(=O)n(C)c12 [Compound I-1d.1129, 3,4-dimethyl-5-(4′,4′,6′,6′-tetramethyl-1′,3′,5′-cyclohexane-trion-2′-yl)-carbonylbenzothiazol-2-one]
- herbicidal action against CHEAL ([8]; 16.5 g/ha of a.s.): good to very good herbicidal action
- pest or weed control at 31.3 g/ha ([8]; Chenopodium album, 31.3 g/ha (a.s.), read-out: herbicidal action against CHEAL): ≥ 95%
- herbicidal action against ECHCG ([9]; 16.5 g/ha of a.s.): good to very good herbicidal action
- herbicidal action against ECHCG ([9]; 31.3 g/ha (a.s.)): good to very good herbicidal action
- herbicidal action against PHBPU ([6]; 16.5 g/ha of a.s.): very good herbicidal action (A damage of at least 95% corresponds to very good herbicidal action)
- herbicidal action against PHBPU ([6]; 31.3 g/ha (a.s.)): very good herbicidal action (A damage of at least 95% corresponds to very good herbicidal action)
- pest or weed control at 31.3 g/ha [10]: ≥ 95%

SMILES: CCn1c(=O)sc2ccc(C(=O)C3=C(O)C(C)(C)C(=O)C(C)(C)C3=O)c(C)c21 [Compound I-1d.1131]
- herbicidal action against ABUTH [5]: very good herbicidal action (A damage of at least 95% corresponds to very good herbicidal action)
- herbicidal action against AMARE [1]: very good herbicidal action (A damage of at least 95% corresponds to very good herbicidal action)
- herbicidal action against SETFA [7]: very good herbicidal action (A damage of at least 95% corresponds to very good herbicidal action)

SMILES: CCCCn1c(=O)sc2ccc(C(=O)C3=C(O)C(C)(C)C(=O)C(C)(C)C3=O)c(C)c21 [Compound I-1d.1134]
- herbicidal action against ABUTH [5]: very good herbicidal action (A damage of at least 95% corresponds to very good herbicidal action)
- herbicidal action against AMARE [1]: very good herbicidal action (A damage of at least 95% corresponds to very good herbicidal action)

SMILES: CCn1c(=O)sc2ccc(C(=O)C3=C(O)C4CCC(C4)C3=O)c(C)c21 (centres unmarked) [Compound I-1x.1131]
- herbicidal action against BRAPL [11]: very good herbicidal action (A damage of at least 95% corresponds to very good herbicidal action)
- herbicidal action against SETFA [7]: very good herbicidal action (A damage of at least 95% corresponds to very good herbicidal action)

SMILES: CCCCn1c(=O)sc2ccc(C(=O)C3=C(O)C4CCC(C4)C3=O)c(C)c21 (centres unmarked) [Compound I-1x.1134]
- herbicidal action against ABUTH [5]: very good herbicidal action (A damage of at least 95% corresponds to very good herbicidal action)
- herbicidal action against SETFA [7]: very good herbicidal action (A damage of at least 95% corresponds to very good herbicidal action)

- melting point: 101 to 110 °C
SMILES: Cc1c(C(=O)C2=C(O)C3CCC(C3)C2=O)ccc2sc(=O)n(C)c12 (centres unmarked) [Example 4]

- melting point: 143 to 150 °C
SMILES: C=CCn1c(=O)sc2ccc(C(=O)C3=C(O)CC(C)(C)CC3=O)c(C)c21 [Example 5]

- melting point: 207 to 209 °C
SMILES: Cc1c(C(=O)C2=C(O)CCCC2=O)ccc2oc(=O)n(C)c12 [Example 6]

- melting point: 139 to 143 °C
SMILES: Cc1c(C(=O)C2=C(O)CC(C)(C)CC2=O)ccc2oc(=O)n(C)c12 [Example 7]

- melting point: 115 to 116 °C
SMILES: CCCCn1c(=O)oc2ccc(C(=O)C3=C(O)CC(C)(C)CC3=O)c(C)c21 [Example 10]

- melting point: 150 to 151 °C
SMILES: CCn1c(=O)sc2ccc(C(=O)C3=C(n4cccn4)CC(C)(C)CC3=O)c(C)c21 [Example 21]

- melting point: 129 to 135 °C
SMILES: CCCn1c(=O)sc2ccc(C(=O)C3=C(O)CC(C)(C)CC3=O)c(C)c21 [Example 25]

- melting point: 189 to 193 °C
SMILES: CCCn1c(=O)oc2ccc(C(=O)C3=C(O)CC(C)(C)CC3=O)c(C)c21 [Example 29]

- melting point: 161 to 166 °C
SMILES: Cc1c(C(=O)C2=C(O)CC(C)(C)CC2=O)ccc2sc(=O)n(Cc3ccccc3)c12 [Example 32]

- melting point: 147 to 149 °C
SMILES: CC#CCn1c(=O)sc2ccc(C(=O)C3=C(O)CC(C)(C)CC3=O)c(C)c21 [Example 33]

- melting point: 129 to 132 °C
SMILES: C=CCCn1c(=O)sc2ccc(C(=O)C3=C(O)C4CCC(C4)C3=O)c(C)c21 (centres unmarked) [Example 40]
